Laboratory results reported in patent US10035800B2 (AbbVie Inc., priority 2013, dated 2018).

Tests used:
BRD4 (BDI_K57-E168) = molecular target: T1, BRD4 (BDI_K57-E168) (Homo sapiens, UniProt O60885); experiment: TR-FRET bromodomain binding assay, first bromodomain of BRD4; details: 100 nM probe
T1 construct: BD1: amino acids K57-E168; made in house
In short: (§1)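 TR-FRET displacement of an Alexa647-labelled BET-inhibitor probe from His-tagged BRD4 BD1 or BD2 (8 nM), read via 1 nM Eu-anti-His antibody after 1 h at room temperature. Buffer was 20 mM sodium phosphate pH 6.0 with 2% DMSO. Probe was 100 nM for BDI and 30 nM for BDII. IC50 came from 4-parameter fits, and Ki from IC50, probe Kd and probe concentration.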

BRD4 (BDII_E352-M457) = molecular target: T2, BRD4 (BDII_E352-M457) (Homo sapiens, UniProt O60885); experiment: TR-FRET bromodomain binding assay, second bromodomain of BRD4; details: 30 nM probe
T2 construct: protocol; made in house
In short: as §1

[1] = system: breast cancer cell line MX-1; experiment: MX-1 cell line proliferation assay; assay type: cell-based; details: MX-1 cells, 3-day proliferation assay, Cell Titer Glo; read-out: Cellular proliferation: EC50
Method: MX-1 Cell Line Proliferation Assay
The impact of compounds of the Examples on cancer cell proliferation was determined using the breast cancer cell line MX-1 (ATCC) in a 3-day proliferation assay and the data are reported in Table 1. MX-1 cells were maintained in RPMI 1640 medium (Sigma) supplemented with 10% FBS at 37 C.° and an atmosphere of 5% CO2. For compound testing, MX-1 cells were plated in 96-well black bottom plates at a density of 5000 cells/well in 90 μL of culture media and incubated at 37° overnight to allow cell adhesion and spreading. Compound dilution series were prepared in DMSO via a 3-fold serial dilution from 3 mM to 0.1 μM. The DMSO dilution series were then diluted 1:100 in phosphate buffered saline, and 10 μL of the resulted solution were added to the appropriate wells of the MX-1 cell plate. The final compound concentrations in the wells were 3, 1, 0.3, 0.1, 0.03, 0.01, 0.003, 0.001, 0.0003, and 0.0001 μM or 1, 0.3, 0.1, 0.03, 0.01, 0.003, 0.001, 0.0003, 0.0001, and 0.00003 μM.
Luminescence readings from the Cell Titer Glo assay were normalized to the DMSO treated cells and analyzed using the GraphPad Prism software with sigmoidal curve fitting to obtain EC50s. The minimum significant ratio (MSR) was determined to evaluate assay reproducibility (Eastwood et al., (2006) J Biomol Screen, 11: 253-261). The overall MSR was determined to be 2.1 and a moving MSR (last six run MSR overtime) has been <2.

[2] = TR-FRET assay protocol G (compound 0.92 μM-15 pM)
[3] = TR-FRET assay protocol E (compound 9.19 μM-150 pM)

Row | Ki (BRD4 (BDI_K57-E168); [2]) [nM] | Ki (BRD4 (BDII_E352-M457); [2]) [nM] | EC50 [1] [nM] | Ki (BRD4 (BDI_K57-E168); [3]) [nM] | Ki (BRD4 (BDII_E352-M457); [3]) [nM] | Compound
1 | 3.92 | 3.75 | 141 |  |  | CCNC(=O)N1Cc2c[nH]c3c(=O)n(C)cc(c23)-c2cc(CS(C)(=O)=O)ccc21 [Example 45, N-ethyl-10-methyl-7-((methylsulfonyl)methyl)-11-oxo-10,11-dihydro-1H-1,4,10-triazadibenzo[cd,f]azulene-4(3H)-carboxamide]
2 | 0.7 | 1.18 | 1.3 |  |  | Cn1cc2c3c(c[nH]c3c1=O)CN(c1ccc(C(F)(F)F)cn1)c1ccc(CS(C)(=O)=O)cc1-2 [Example 253, 10-methyl-7-((methylsulfonyl)methyl)-4-(5-(trifluoromethyl)pyridin-2-yl)-3,4-dihydro-1H-1,4,10-triazadibenzo[cd,f]azulen-11(10H)-one]
3 | 1.99 | 2.21 | 8.63 |  |  | Cn1cc2c3c(c[nH]c3c1=O)CN(CC1CC1)c1c(F)cc(F)cc1-2 [Example 49, 4-(cyclopropylmethyl)-5,7-difluoro-10-methyl-3,4-dihydro-1H-1,4,10-triazadibenzo[cd,f]azulen-11(10H)-one]
4 | 2.61 | 2.47 | 48.7 |  |  | Cn1cc2c3c(c[nH]c3c1=O)CN(C(=O)NC1CCCC1)c1ccc(CS(C)(=O)=O)cc1-2 [Example 44, N-cyclopentyl-10-methyl-7-((methylsulfonyl)methyl)-11-oxo-10,11-dihydro-1H-1,4,10-triazadibenzo[cd,f]azulene-4(3H)-carboxamide]
5 | 15.5 | 1.66 | 165 |  |  | 3-(4-(2,4-difluorophenyl)-10-methyl-7-((methylsulfonyl)methyl)-11-oxo-3,4,10,11-tetrahydro-1H-1,4,10-triazadibenzo[cd,f]azulen-3-yl)propanamide [Example 99]
6 |  |  | 370 | 246 | 43.8 | CC(C)CC1Nc2ccc(CS(C)(=O)=O)cc2-c2cn(C)c(=O)c3[nH]cc1c23 (racemic) [Example 19, 3-isobutyl-10-methyl-7-((methylsulfonyl)methyl)-3,4-dihydro-1H-1,4,10-triazadibenzo[cd,f]azulen-11(10H)-one]
7 | 13.9 | 2.11 | 165 |  |  | Cn1cc2c3c(c[nH]c3c1=O)CN(C(=O)Cc1ccccc1)c1ccc(CS(C)(=O)=O)cc1-2 [Example 108, 10-methyl-7-((methylsulfonyl)methyl)-4-(2-phenylacetyl)-3,4-dihydro-1H-1,4,10-triazadibenzo[cd,f]azulen-11(10H)-one]
8 | 69.2 | 76.3 |  |  |  | Cn1cc2c3c(c[nH]c3c1=O)C(C(=O)NC1(C)CC1)N(c1ccc(F)cc1F)c1ccc(CS(C)(=O)=O)cc1-2 (racemic) [Example 167, 4-(2,4-difluorophenyl)-10-methyl-N-(1-methylcyclopropyl)-7-((methylsulfonyl)methyl)-11-oxo-3,4,10,11-tetrahydro-1H-1,4,10-triazadibenzo[cd,f]azulene-3-carboxamide]
9 | 47.1 | 60.4 |  |  |  | Cn1cc2c3c(c[nH]c3c1=O)C(C(=O)NCCO)N(c1ccc(F)cc1F)c1ccc(CS(C)(=O)=O)cc1-2 (stereo not drawn) [Example 162, 4-(2,4-difluorophenyl)-N-(2-hydroxyethyl)-10-methyl-7-((methylsulfonyl)methyl)-11-oxo-3,4,10,11-tetrahydro-1H-1,4,10-triazadibenzo[cd,f]azulene-3-carboxamide]
10 | 16 | 11.2 |  |  |  | Cn1cc2c3c(c[nH]c3c1=O)CN(C(=O)CCc1ccccc1)c1ccc(CS(C)(=O)=O)cc1-2 [Example 116, 10-methyl-7-((methylsulfonyl)methyl)-4-(3-phenylpropanoyl)-3,4-dihydro-1H-1,4,10-triazadibenzo[cd,f]azulen-11(10H)-one]
11 | 29.8 | 7.41 |  |  |  | Cn1cc2c3c(c[nH]c3c1=O)CN(C(=O)c1ccc(F)cc1)c1ccc(CS(C)(=O)=O)cc1-2 [Example 100, 4-(4-fluorobenzoyl)-10-methyl-7-((methylsulfonyl)methyl)-3,4-dihydro-1H-1,4,10-triazadibenzo[cd,f]azulen-11(10H)-one]

The remaining lines, values behind:

Row | Compound | Ki (BRD4 (BDI_K57-E168); [2]) [nM] | Ki (BRD4 (BDII_E352-M457); [2]) [nM] | EC50 [1] [nM] | Ki (BRD4 (BDI_K57-E168); [3]) [nM] | Ki (BRD4 (BDII_E352-M457); [3]) [nM]
12 | Cn1cc(-c2[nH]c3c(=O)n(C)cc4c3c2CN(c2ccc(F)cc2F)c2ccc(S(C)(=O)=O)cc2-4)cn1 [Example 270, 4-(2,4-difluorophenyl)-10-methyl-2-(1-methyl-1H-pyrazol-4-yl)-7-(methylsulfonyl)-3,4-dihydro-1H-1,4,10-triazadibenzo[cd,f]azulen-11(10H)-one] | 11 | 3.35 | 80.7 |  | 
13 | CCCNC(=O)N1Cc2c[nH]c3c(=O)n(C)cc(c23)-c2cc(CS(C)(=O)=O)ccc21 [Example 64, 10-methyl-7-((methylsulfonyl)methyl)-11-oxo-N-propyl-10,11-dihydro-1H-1,4,10-triazadibenzo[cd,f]azulene-4(3H)-carboxamide] | 2.69 | 2.85 | 84.6 |  | 
14 | 4-(6-methoxypyridin-2-yl)-10-methyl-7-((methylsulfonyl)methyl)-3,4-dihydro-1H-1,4,10-triazadibenzo[cd,f]azulen-11(10H)-one [Example 256] | 0.59 | 0.54 | 0.35 |  | 
15 | CC(=O)OCCCCCCC1c2c[nH]c3c(=O)n(C)cc(c23)-c2cc(CS(C)(=O)=O)ccc2N1c1ccc(F)cc1F (stereo not drawn) [Example 128, 6-(4-(2,4-difluorophenyl)-10-methyl-7-((methylsulfonyl)methyl)-11-oxo-3,4,10,11-tetrahydro-1H-1,4,10-triazadibenzo[cd,f]azulen-3-yl)hexyl acetate] | 29.1 | 2 | 72.9 |  | 
16 | Cc1ccc(OC(=O)N2Cc3c[nH]c4c(=O)n(C)cc(c34)-c3cc(CS(C)(=O)=O)ccc32)cc1 [Example 91, p-tolyl 10-methyl-7-((methylsulfonyl)methyl)-11-oxo-10,11-dihydro-1H-1,4,10-triazadibenzo[cd,f]azulene-4(3H)-carboxylate] | 3.27 | 1.15 | 1.81 |  | 
17 | CCC1c2c[nH]c3c(=O)n(C)cc(c23)-c2cc(S(=O)(=O)CC)ccc2N1CC1CC1 (stereo not drawn) [Example 3, 4-(cyclopropylmethyl)-3-ethyl-7-(ethylsulfonyl)-10-methyl-3,4-dihydro-1H-1,4,10-triazadibenzo[cd,f]azulen-11(10H)-one] |  |  | 48.7 | 46 | 8.91
18 | Cn1cc2c3c(c[nH]c3c1=O)CN(C(=O)NCC1CCCCC1)c1ccc(CS(C)(=O)=O)cc1-2 [Example 67, N-(cyclohexylmethyl)-10-methyl-7-((methylsulfonyl)methyl)-11-oxo-10,11-dihydro-1H-1,4,10-triazadibenzo[cd,f]azulene-4(3H)-carboxamide] | > 238 | > 408 |  |  | 
19 | Cn1cc2c3c(c[nH]c3c1=O)C(C(=O)NCC(C)(C)O)N(c1ccc(F)cc1F)c1ccc(CS(C)(=O)=O)cc1-2 (stereo not drawn) [Example 165, 4-(2,4-difluorophenyl)-N-(2-hydroxy-2-methylpropyl)-10-methyl-7-((methylsulfonyl)methyl)-11-oxo-3,4,10,11-tetrahydro-1H-1,4,10-triazadibenzo[cd,f]azulene-3-carboxamide] | 81.4 | 79.6 |  |  | 
20 | Cn1cc2c3c(c[nH]c3c1=O)C(C(=O)NCc1cocn1)N(c1ccc(F)cc1F)c1ccc(CS(C)(=O)=O)cc1-2 (stereo not drawn) [Example 163, 4-(2,4-difluorophenyl)-10-methyl-7-((methylsulfonyl)methyl)-N-(oxazol-4-ylmethyl)-11-oxo-3,4,10,11-tetrahydro-1H-1,4,10-triazadibenzo[cd,f]azulene-3-carboxamide] | 57.4 | 45.4 |  |  | 
21 | Cn1cc2c3c(c[nH]c3c1=O)CN(Cc1ccccc1OCC(N)=O)c1ccc(CS(C)(=O)=O)cc1-2 [Example 262, 2-(2-((10-methyl-7-((methylsulfonyl)methyl)-11-oxo-10,11-dihydro-1H-1,4,10-triazadibenzo[cd,f]azulen-4(3H)-yl)methyl)phenoxy)acetamide] | 9.37 | 13.2 |  |  | 
22 | COc1ccc(C(=O)N2Cc3c[nH]c4c(=O)n(C)cc(c34)-c3cc(CS(C)(=O)=O)ccc32)cc1 [Example 110, 4-(4-methoxybenzoyl)-10-methyl-7-((methylsulfonyl)methyl)-3,4-dihydro-1H-1,4,10-triazadibenzo[cd,f]azulen-11(10H)-one] | 41.7 | 19.9 |  |  | 
